Source: patent US20180319810A1, “SUBSTITUTED BRIDGED UREA ANALOGS AS SIRTUIN MODULATORS” (GlaxoSmithKline Intellectual Property (No.2) Limited, priority 2014, published 2018)

Biological target: T1, SIRT1 (Homo sapiens, UniProt Q96EB6)
T1 sequence (Q96EB6 1-747): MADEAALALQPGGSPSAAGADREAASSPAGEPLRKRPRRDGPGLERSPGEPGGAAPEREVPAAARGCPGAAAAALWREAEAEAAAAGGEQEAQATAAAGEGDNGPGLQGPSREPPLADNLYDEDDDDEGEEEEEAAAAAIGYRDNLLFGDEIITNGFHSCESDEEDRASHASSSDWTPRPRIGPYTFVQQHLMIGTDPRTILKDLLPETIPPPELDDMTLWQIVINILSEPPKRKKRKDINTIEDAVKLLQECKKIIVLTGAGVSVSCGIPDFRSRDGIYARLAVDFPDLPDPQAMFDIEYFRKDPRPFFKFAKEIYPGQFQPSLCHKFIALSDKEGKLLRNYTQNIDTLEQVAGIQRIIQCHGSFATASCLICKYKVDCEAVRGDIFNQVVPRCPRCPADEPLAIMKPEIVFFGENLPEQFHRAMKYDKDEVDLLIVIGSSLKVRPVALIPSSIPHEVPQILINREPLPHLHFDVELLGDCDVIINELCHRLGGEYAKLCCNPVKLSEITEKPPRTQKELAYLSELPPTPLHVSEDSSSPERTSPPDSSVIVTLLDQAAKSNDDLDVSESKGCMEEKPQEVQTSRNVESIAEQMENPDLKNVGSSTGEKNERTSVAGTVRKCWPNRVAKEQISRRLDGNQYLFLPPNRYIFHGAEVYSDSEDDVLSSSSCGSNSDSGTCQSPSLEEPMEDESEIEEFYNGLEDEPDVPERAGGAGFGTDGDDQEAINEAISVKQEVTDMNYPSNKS
Experiment: Trp mass spectrometry assay of SIRT1 activation
Format: biochemical
Conditions: Trp peptide Ac-R-H-K-K(Ac)-W-NH2 0.5 μM, 120 μM βNAD+, 10 nM SIRT1, 25 min, 25° C.

| SMILES | TRP Activity (EC1.5, concentration of compound required to increase SIRT1 activity by 50% over control) | TRP MAX RESP (percent maximum fold activation relative to control) |
| --- | --- | --- |
| O=C(Nc1cc(OC[C@H](O)CO)ncn1)N1c2nc(-c3cccc(C(F)(F)F)c3)ncc2N2CCC[C@H]1C2 [Example 92, (9S)—N-(6-((R)-2,3-dihydroxypropoxy)pyrimidin-4-yl)-2-(3-(trifluoromethyl)phenyl)-8,9-dihydro-6H-5,9-methanopyrimido[4,5-b][1,4]diazocine-10(7H)-carboxamide] | A (EC1.5<1 μM) | A (Fold activation ≥150%) |
| O=C(Nc1cc(OC[C@@H](O)CO)ncn1)N1c2nc(-c3cccc(C(F)(F)F)c3)ncc2N2CCC[C@H]1C2 [Example 96, (9S)—N-(6-((S)-2,3-dihydroxypropoxy)pyrimidin-4-yl)-2-(3-(trifluoromethyl)phenyl)-8,9-dihydro-6H-5,9-methanopyrimido[4,5-b][1,4]diazocine-10(7H)-carboxamide] | A (EC1.5<1 μM) | A (Fold activation ≥150%) |
| O=C(Nc1cnc(OC[C@H](O)CO)cn1)N1c2nc(-c3cccc(C(F)(F)F)c3)ncc2N2CCC[C@H]1C2 [Example 97, (9S)—N-(5-((R)-2,3-dihydroxypropoxy)pyrazin-2-yl)-2-(3-(trifluoromethyl)phenyl)-8,9-dihydro-6H-5,9-methanopyrimido[4,5-b][1,4]diazocine-10(7H)-carboxamide] | A (EC1.5<1 μM) | A (Fold activation ≥150%) |

Further lines, results first:

| TRP Activity (EC1.5, concentration of compound required to increase SIRT1 activity by 50% over control) | TRP MAX RESP (percent maximum fold activation relative to control) | SMILES |
| --- | --- | --- |
| B (EC1.5 1-25 μM) | A (Fold activation ≥150%) | O=C(Nc1ncc(OC[C@@H](O)CO)cn1)N1c2nc(-c3cccc(C(F)(F)F)c3)ncc2N2CCC[C@H]1C2 [Example 93, (9S)—N-(5-((S)-2,3-dihydroxypropoxy)pyrimidin-2-yl)-2-(3-(trifluoromethyl)phenyl)-8,9-dihydro-6H-5,9-methanopyrimido[4,5-b][1,4]diazocine-10(7H)-carboxamide] |
| A (EC1.5<1 μM) | A (Fold activation ≥150%) | O=C(Nc1cncc(OC[C@@H](O)CO)c1)N1c2nc(-c3cccc(C(F)(F)F)c3)ncc2N2CCC[C@H]1C2 [Example 94, (9S)—N-(5-((S)-2,3-dihydroxypropoxy)pyridin-3-yl)-2-(3-(trifluoromethyl)phenyl)-8,9-dihydro-6H-5,9-methanopyrimido[4,5-b][1,4]diazocine-10(7H)-carboxamide] |
| A (EC1.5<1 μM) | A (Fold activation ≥150%) | O=C(Nc1cncc(OC[C@H](O)CO)n1)N1c2nc(-c3cccc(C(F)(F)F)c3)ncc2N2CCC[C@H]1C2 [Example 95, (9S)—N-(6-((R)-2,3-dihydroxypropoxy)pyrazin-2-yl)-2-(3-(trifluoromethyl)phenyl)-8,9-dihydro-6H-5,9-methanopyrimido[4,5-b][1,4]diazocine-10(7H)-carboxamide] |
| A (EC1.5<1 μM) | A (Fold activation ≥150%) | O=C(Nc1ccc(OC[C@@H](O)CO)cn1)N1c2nc(-c3cccc(C(F)(F)F)c3)ncc2N2CCC[C@H]1C2 [Example 98, (9S)—N-(5-((S)-2,3-dihydroxypropoxy)pyridin-2-yl)-2-(3-(trifluoromethyl)phenyl)-8,9-dihydro-6H-5,9-methanopyrimido[4,5-b][1,4]diazocine-10(7H)-carboxamide] |
